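Values below derive from 48-hour exposures of cells grown in 96-well plates, with endpoints linearly interpolated between the two concentrations bracketing the appropriate inhibition level. GI50 is the concentration that inhibits growth by half. The concentration for full growth arrest is given as TGI.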
How the values were obtained:
Assay in all cases: NCI-60 cell line screen, 48 h
OVCAR-5 ovarian = tested on: OVCAR-5 ovarian
NCI-H23 lung = tested on: NCI-H23 lung
SF-268 CNS = tested on: SF-268 CNS
M14 melanoma = tested on: M14 melanoma
DU-145 prostate = tested on: DU-145 prostate
CCRF-CEM leukemia = tested on: CCRF-CEM leukemia
KM12 colon = tested on: KM12 colon
HOP-92 NSCLC = tested on: HOP-92 NSCLC
K-562 leukemia = tested on: K-562 leukemia
A549 NSCLC = tested on: A549 NSCLC
MDA-MB-435 = tested on: MDA-MB-435
OVCAR-4 ovarian = tested on: OVCAR-4 ovarian
CAKI-1 renal = tested on: CAKI-1 renal
SN12C renal = tested on: SN12C renal
SR leukemia = tested on: SR leukemia
T-47D breast = tested on: T-47D breast
A498 renal = tested on: A498 renal
PC-3 prostate = tested on: PC-3 prostate
SNB-19 CNS = tested on: SNB-19 CNS
SK-MEL-2 melanoma = tested on: SK-MEL-2 melanoma
EKVX NSCLC = tested on: EKVX NSCLC
TK-10 renal = tested on: TK-10 renal
786-0 renal = tested on: 786-0 renal
COLO 205 colon = tested on: COLO 205 colon
HCT-15 colon = tested on: HCT-15 colon
SW-620 colon = tested on: SW-620 colon
HCC-2998 colon = tested on: HCC-2998 colon
UO-31 renal = tested on: UO-31 renal
RXF 393 renal = tested on: RXF 393 renal
MDA-MB-231 breast = tested on: MDA-MB-231 breast
SF-539 CNS = tested on: SF-539 CNS
SNB-75 CNS = tested on: SNB-75 CNS
RPMI-8226 leukemia = tested on: RPMI-8226 leukemia
IGROV1 ovarian = tested on: IGROV1 ovarian
HL-60(TB) leukemia = tested on: HL-60(TB) leukemia
NCI-H522 lung = tested on: NCI-H522 lung
UACC-62 melanoma = tested on: UACC-62 melanoma
HOP-62 NSCLC = tested on: HOP-62 NSCLC
SK-OV-3 ovarian = tested on: SK-OV-3 ovarian
MALME-3M melanoma = tested on: MALME-3M melanoma
OVCAR-3 ovarian = tested on: OVCAR-3 ovarian
NCI-H460 lung = tested on: NCI-H460 lung
NCI/ADR-RES ovarian = tested on: NCI/ADR-RES ovarian
U251 CNS = tested on: U251 CNS
SK-MEL-5 melanoma = tested on: SK-MEL-5 melanoma
BT-549 breast = tested on: BT-549 breast
LOX IMVI melanoma = tested on: LOX IMVI melanoma
ACHN renal = tested on: ACHN renal
MCF7 breast = tested on: MCF7 breast
HS 578T breast = tested on: HS 578T breast
HCT-116 colon = tested on: HCT-116 colon
MOLT-4 leukemia = tested on: MOLT-4 leukemia
UACC-257 melanoma = tested on: UACC-257 melanoma
HT29 colon = tested on: HT29 colon
SF-295 CNS = tested on: SF-295 CNS
SK-MEL-28 melanoma = tested on: SK-MEL-28 melanoma
OVCAR-8 ovarian = tested on: OVCAR-8 ovarian
NCI-H226 lung = tested on: NCI-H226 lung

## Cc1cc(C)c(CNC(=O)c2cc(-c3ccc(CN4CCOCC4)cc3)cc3c2cnn3C2CCCC2)c(=O)[nH]1
OVCAR-5 ovarian
  GI50: 22.1 µM
  TGI: 63.5 µM
NCI-H23 lung
  GI50: 18.5 µM
  TGI: 47.8 µM
SF-268 CNS
  GI50: 13.9 µM
  TGI: 43.8 µM
M14 melanoma
  GI50: 18.8 µM
  TGI: 43.1 µM
DU-145 prostate
  GI50: 21.5 µM
  TGI: 81 µM
CCRF-CEM leukemia
  GI50: 26.3 µM
  TGI: 97.5 µM
KM12 colon
  GI50: 18.6 µM
  TGI: 49 µM
HOP-92 NSCLC
  GI50: 10.2 µM
  TGI: 27.2 µM
K-562 leukemia
  GI50: 21.4 µM
  TGI: > 100 µM
A549 NSCLC
  GI50: 17.8 µM
  TGI: 41.6 µM
MDA-MB-435
  GI50: 15.9 µM
  TGI: 35 µM
OVCAR-4 ovarian
  GI50: 21.3 µM
  TGI: 91.6 µM
CAKI-1 renal
  GI50: 16.1 µM
  TGI: 42.2 µM
SN12C renal
  GI50: 19.3 µM
  TGI: 46.6 µM
SR leukemia
  GI50: 22.4 µM
  TGI: 65.5 µM
T-47D breast
  GI50: 12.9 µM
  TGI: 50.4 µM
A498 renal
  GI50: 15.5 µM
  TGI: 34.6 µM
PC-3 prostate
  GI50: 17.9 µM
  TGI: 54.6 µM
SNB-19 CNS
  GI50: 24.7 µM
  TGI: 77.1 µM
SK-MEL-2 melanoma
  GI50: 17.8 µM
  TGI: 35.4 µM
EKVX NSCLC
  GI50: 11.8 µM
  TGI: 28.2 µM
TK-10 renal
  GI50: 16.4 µM
  TGI: 35.9 µM
786-0 renal
  GI50: 17.6 µM
  TGI: 42.4 µM
COLO 205 colon
  GI50: 14.7 µM
  TGI: 34 µM
HCT-15 colon
  GI50: 10.2 µM
  TGI: 25.9 µM
SW-620 colon
  GI50: 25.3 µM
  TGI: > 100 µM
HCC-2998 colon
  GI50: 16.6 µM
  TGI: 35.5 µM
UO-31 renal
  GI50: 8.8 µM
  TGI: 26.6 µM
RXF 393 renal
  GI50: 14.6 µM
  TGI: 32.6 µM
MDA-MB-231 breast
  GI50: 19.9 µM
  TGI: 51.7 µM
SF-539 CNS
  GI50: 16.1 µM
  TGI: 34.4 µM
SNB-75 CNS
  GI50: 12.6 µM
  TGI: 32.4 µM
RPMI-8226 leukemia
  GI50: 13.7 µM
  TGI: 50.7 µM
IGROV1 ovarian
  GI50: 17.6 µM
  TGI: 67.8 µM
HL-60(TB) leukemia
  GI50: 16.5 µM
  TGI: 55.2 µM
NCI-H522 lung
  GI50: 16.2 µM
  TGI: 30.4 µM
UACC-62 melanoma
  GI50: 17.8 µM
  TGI: 43.2 µM
HOP-62 NSCLC
  GI50: 18 µM
  TGI: 39.3 µM
SK-OV-3 ovarian
  GI50: 20.1 µM
  TGI: 44.5 µM
MALME-3M melanoma
  GI50: 16.7 µM
  TGI: 34.1 µM
OVCAR-3 ovarian
  GI50: 13.4 µM
  TGI: 30.9 µM
NCI-H460 lung
  GI50: 16.1 µM
  TGI: 43 µM
NCI/ADR-RES ovarian
  GI50: 15.1 µM
  TGI: 42.5 µM
U251 CNS
  GI50: 15.2 µM
  TGI: 31.7 µM
SK-MEL-5 melanoma
  GI50: 13.7 µM
  TGI: 27.3 µM
BT-549 breast
  GI50: 17.1 µM
  TGI: 41.7 µM
LOX IMVI melanoma
  GI50: 15.3 µM
  TGI: 34.2 µM
ACHN renal
  GI50: 15.1 µM
  TGI: 34.6 µM
MCF7 breast
  GI50: 10.8 µM
  TGI: 28.8 µM
HS 578T breast
  GI50: 19.1 µM
  TGI: 64 µM
HCT-116 colon
  GI50: 18.2 µM
  TGI: 50.2 µM
MOLT-4 leukemia
  GI50: 17.5 µM
  TGI: > 100 µM
UACC-257 melanoma
  GI50: 21 µM
  TGI: 42.8 µM
HT29 colon
  GI50: 11.8 µM
  TGI: 27.1 µM
SF-295 CNS
  GI50: 16.6 µM
  TGI: 36.5 µM
SK-MEL-28 melanoma
  GI50: 15.7 µM
  TGI: 32.4 µM
OVCAR-8 ovarian
  GI50: 17.3 µM
  TGI: 57.9 µM
NCI-H226 lung
  GI50: 17.5 µM
  TGI: 37 µM

Reference: PubChem BioAssay (NCI)
